Experimental data taken from patent US10669272B2, “Substituted naphthyridinone compounds useful as T cell activators” (BRISTOL-MYERS SQUIBB COMPANY, priority 2018, dated 2020).
Read-outs that look alike come from different tables or passages of the source.

Tests used:
human DGKα = target: T1, human DGKα (Homo sapiens, UniProt P23743); assay: DGKα LIPGLO assay (extruded liposome substrate), in vitro DGK inhibition; assay type: biochemical; settings: read-out: DGKa LIPGLO IC50
T1 construct: TVMV protease cleavage site (C); Hexa-His (C); made in house; host or cells: Sf9 insect cells (baculovirus, Bac-to-Bac)

Human venous whole blood = assay: Human whole blood IFN-γ assay; assay type: cell-based; settings: human whole blood, read-out: INFg Whole Blood Normalized Agonist EC50;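 note: blood from healthy donors exposed to compound for 1 h before stimulation with anti-CD3 and anti-CD28 at 1 µg/mL each, IFN-γ quantified in supernatant by AlphaLISA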
human DGKζ = target: T2, human DGKζ (Homo sapiens, UniProt Q13574); assay: DGKζ LIPGLO assay (extruded liposome substrate), in vitro DGK inhibition; assay type: biochemical; settings: read-out: DGKz LIPGLO IC50
T2 construct: TVMV protease cleavage site (C); Hexa-His (C); made in house; host or cells: Sf9 insect cells (baculovirus, Bac-to-Bac)

[1] = Homo sapiens, 24 h, normalized to 3 μM reference compound with anti-CD3 plus anti-CD28 as 100% activation
[2] = normalized to 3 μM reference compound with anti-CD3 plus anti-CD28 as 100% activation
[3] = anti-CD3 plus anti-CD28, 24 hours, 3 μM reference compound = 100% activation
[4] = Homo sapiens, 24 h, anti-CD3 plus anti-CD28, 24 hours, 3 μM reference compound = 100% activation

T1 sequence (P23743 with tags, fused parts or gaps): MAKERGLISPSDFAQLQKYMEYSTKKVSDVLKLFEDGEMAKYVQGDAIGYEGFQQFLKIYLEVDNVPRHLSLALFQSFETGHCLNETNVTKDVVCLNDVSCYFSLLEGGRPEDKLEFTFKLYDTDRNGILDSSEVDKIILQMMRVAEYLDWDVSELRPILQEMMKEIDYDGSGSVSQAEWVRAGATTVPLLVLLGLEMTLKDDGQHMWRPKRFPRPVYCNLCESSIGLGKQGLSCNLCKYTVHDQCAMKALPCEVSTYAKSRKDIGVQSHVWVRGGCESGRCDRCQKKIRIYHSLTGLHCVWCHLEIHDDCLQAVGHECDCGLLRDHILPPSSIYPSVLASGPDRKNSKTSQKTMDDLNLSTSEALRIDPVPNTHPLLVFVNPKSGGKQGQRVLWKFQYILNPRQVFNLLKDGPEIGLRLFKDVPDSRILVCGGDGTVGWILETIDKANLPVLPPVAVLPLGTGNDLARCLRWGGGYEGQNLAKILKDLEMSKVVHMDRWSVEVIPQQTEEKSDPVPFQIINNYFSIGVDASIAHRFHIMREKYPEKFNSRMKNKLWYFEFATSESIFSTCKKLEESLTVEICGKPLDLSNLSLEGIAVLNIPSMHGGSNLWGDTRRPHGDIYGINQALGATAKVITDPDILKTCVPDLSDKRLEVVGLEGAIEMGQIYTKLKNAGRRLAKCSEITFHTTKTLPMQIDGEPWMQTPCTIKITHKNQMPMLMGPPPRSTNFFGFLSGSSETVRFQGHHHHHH
T2 sequence (Q13574 with tags, fused parts or gaps isoform Q13574-4): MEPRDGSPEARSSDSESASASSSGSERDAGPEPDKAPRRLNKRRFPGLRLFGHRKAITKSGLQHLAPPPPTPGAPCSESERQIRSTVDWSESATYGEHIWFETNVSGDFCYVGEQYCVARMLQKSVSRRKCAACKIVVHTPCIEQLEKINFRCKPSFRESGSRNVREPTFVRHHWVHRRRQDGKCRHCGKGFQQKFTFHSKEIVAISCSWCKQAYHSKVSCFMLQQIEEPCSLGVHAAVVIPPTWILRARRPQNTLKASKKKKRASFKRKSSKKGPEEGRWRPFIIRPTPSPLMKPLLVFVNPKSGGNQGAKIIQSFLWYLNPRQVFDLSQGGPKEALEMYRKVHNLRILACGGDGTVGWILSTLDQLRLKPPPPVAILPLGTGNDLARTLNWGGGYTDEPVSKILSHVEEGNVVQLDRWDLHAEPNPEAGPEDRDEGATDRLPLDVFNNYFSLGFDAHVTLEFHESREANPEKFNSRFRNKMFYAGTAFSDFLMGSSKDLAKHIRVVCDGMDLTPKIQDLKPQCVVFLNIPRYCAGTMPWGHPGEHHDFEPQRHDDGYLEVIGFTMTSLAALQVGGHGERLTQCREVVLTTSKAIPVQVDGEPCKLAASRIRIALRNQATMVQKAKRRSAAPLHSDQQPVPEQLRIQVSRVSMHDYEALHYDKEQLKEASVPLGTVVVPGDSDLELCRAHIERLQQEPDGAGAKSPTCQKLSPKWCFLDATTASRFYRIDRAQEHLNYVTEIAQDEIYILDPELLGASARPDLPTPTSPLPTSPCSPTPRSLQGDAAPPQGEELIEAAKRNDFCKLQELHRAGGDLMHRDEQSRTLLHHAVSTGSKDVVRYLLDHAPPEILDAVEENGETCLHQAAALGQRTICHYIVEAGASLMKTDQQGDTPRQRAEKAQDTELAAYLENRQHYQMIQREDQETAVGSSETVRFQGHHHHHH

SMILES | IC50 (human DGKα; liposome (LIPGLO) assay) | IC50 (human DGKζ; liposome (LIPGLO) assay) | IC50 (human DGKα; DGKα liposome (LIPGLO) assay) | IC50 (human DGKζ; DGKζ liposome (LIPGLO) assay) | EC50 (Human venous whole blood; [1]) | EC50 (Human venous whole blood; [2]) | EC50 (Human venous whole blood; [3]) | EC50 (Human venous whole blood; [4])
Cc1ccc(C(c2cccc(Cl)c2)N2C[C@H](C)N(c3cc(=O)n(C)c4ccc(C#N)nc34)C[C@H]2C)nc1 (stereo partly drawn) [Example 398, 8-((2S,5R)-4-((3-chlorophenyl)(5-methylpyridin-2-yl)methyl)-2,5-dimethylpiperazin-1-yl)-5-methyl-6-oxo-5,6-dihydro-1,5-naphthyridine-2-carbonitrile] | 1100 nM | 1400 nM |  |  | 410 nM |  |  | 
COC(=O)C1CN(c2cc(=O)n(C)c3ccc(C#N)nc23)CCN1C(c1ccc(Cl)cc1)c1ccc(Cl)cc1 (single isomer, unassigned) [Example 96, methyl 1-(bis(4-chlorophenyl)methyl)-4-(6-cyano-1-methyl-2-oxo-1,2-dihydro-1,5-naphthyridin-4-yl)piperazine-2-carboxylate] | 240000 nM | 14000 nM |  |  |  | 13000 nM |  | 
Cc1ccc(C)c(C(C)N2CCN(c3c(C#N)c(=O)n(C)c4ccc(C#N)nc34)C[C@H]2C)c1 (single isomer, unassigned) [Example 976] |  |  | 17000 nM | 6400 nM |  |  | 20000 nM | 
CC(c1ccc(F)cc1)N1CCN(c2c(C#N)c(=O)n(C)c3ccc(C#N)nc23)C[C@H]1C (single isomer, unassigned) [Example 959] |  |  | 2400 nM | 5900 nM |  |  | 5400 nM | 
C[C@@H]1CN(c2c(C#N)c(=O)n(C)c3ccc(C#N)nc23)[C@@H](C)CN1C(c1ccccc1)c1cc(F)cc(F)c1 (single isomer, unassigned) [Example 813] |  |  | 85000 nM | 3700 nM |  |  | 20000 nM | 
C[C@@H]1CN(c2c(C#N)c(=O)n(C)c3ccc(C#N)nc23)CCN1C(c1ccc(F)cc1)c1ccc(C#N)cn1 (single isomer, unassigned) [Example 924] |  |  | 3200 nM | 10000 nM |  |  | 4000 nM | 
C[C@H]1CN(C(c2ccc(F)cc2)c2ccc(F)cc2)[C@H](CN2CC(O)C2)CN1c1cc(=O)n(C)c2ccc(C#N)nc12 [Example 1168] | 83000 nM | 60000 nM |  |  | 20000 nM |  |  | 
C[C@@H]1CN(c2c(C#N)c(=O)n(C)c3ccc(C#N)nc23)CCN1Cc1ccc(Cl)c(F)c1 [Example 1015] |  |  | 1400 nM | 8200 nM |  |  |  | 2700 nM
C[C@@H]1CN(c2cc(=O)n(C)c3ccc(C#N)nc23)[C@@H](C)CN1C(c1ccc(Br)cc1)c1nc(C2CC2)no1 (stereo partly drawn) [Example 760] |  |  | 70 nM | 22 nM |  |  | 48 nM | 
Cc1ccc(C(c2ncccc2F)N2CCN(c3c(C#N)c(=O)n(C)c4ccc(C#N)nc34)C[C@H]2C)cc1 (single isomer, unassigned) [Example 892] |  |  | 1800 nM | 1300 nM |  |  | 5000 nM | 
C[C@@H]1CN(c2c(C#N)c(=O)n(C)c3ccc(C#N)nc23)CCN1C(c1ccc(F)cc1)c1cccc2c1OC(F)(F)O2 (single isomer, unassigned) [Example 939] |  |  | 83000 nM | 4000 nM |  |  |  | 2600 nM
C[C@@H]1CN(c2c(C#N)c(=O)n(C)c3ccc(C#N)nc23)[C@@H](C)CN1C(c1ccc(F)cc1)c1cnn(C)c1 (stereo partly drawn) [Example 847] |  |  | 22000 nM | 7400 nM |  |  | 5000 nM | 
CC(c1ccccc1F)N1C[C@H](C)N(c2c(C#N)c(=O)n(C)c3ccc(C#N)nc23)C[C@H]1C (single isomer, unassigned) [Example 798] |  |  | 9800 nM | > 250000 nM |  |  | 20000 nM | 
C[C@@H]1CN(c2c(C#N)c(=O)n(C)c3ccc(C#N)nc23)CCN1C(c1ccc(F)cc1)c1nc(C2CC2)no1 (single isomer, unassigned) [Example 1030] | 2200 nM | 1100 nM |  |  |  | 670 nM |  | 
CC(c1ccc(Br)cc1)N1CCN(c2c(C#N)c(=O)n(C)c3ccc(C#N)nc23)C[C@H]1C (single isomer, unassigned) [Example 974] |  |  | 1100 nM | 7600 nM |  |  |  | 20000 nM
C[C@@H]1CN(c2c(C#N)c(=O)n(C)c3ccc(C#N)nc23)CCN1Cc1cccc(F)c1 [Example 1005] |  |  | 870 nM | 7700 nM |  |  |  | 20000 nM

More lines, main results first:

IC50 (human DGKα; liposome (LIPGLO) assay) | IC50 (human DGKζ; liposome (LIPGLO) assay) | IC50 (human DGKα; DGKα liposome (LIPGLO) assay) | IC50 (human DGKζ; DGKζ liposome (LIPGLO) assay) | SMILES | EC50 (Human venous whole blood; [1]) | EC50 (Human venous whole blood; [2]) | EC50 (Human venous whole blood; [3]) | EC50 (Human venous whole blood; [4])
700 nM | 1600 nM |  |  | CC[C@H]1CN(C(C)c2ccc(OC(F)(F)F)cc2)[C@H](C)CN1c1cc(=O)n(C)c2ccc(C#N)nc12 (single isomer, unassigned) [Example 1142] |  | 1200 nM |  | 
110 nM | 1800 nM |  |  | CC[C@H]1CN(C(c2ccc(Cl)cc2)c2ccc(F)cn2)[C@H](C)CN1c1cc(=O)n(C)c2ccc(C#N)nc12 (single isomer, unassigned) [Example 1129] | 410 nM |  |  | 
7500 nM | 310 nM |  |  | COCCOc1cc(C(C)N2C[C@H](C)N(c3cc(=O)n(C)c4ccc(C#N)nc34)C[C@H]2C)ccc1C#N (single isomer, unassigned) [Example 1321] | 3000 nM |  |  | 
910 nM | 1900 nM |  |  | Cc1ccc(C(c2cccc(F)n2)N2C[C@H](C)N(c3cc(=O)n(C)c4ccc(C#N)nc34)C[C@H]2C)cc1 (single isomer, unassigned) [Example 479] |  | 2100 nM |  | 
960 nM | 57 nM |  |  | COCCOC[C@@H]1CN(c2cc(=O)n(C)c3ccc(C#N)nc23)[C@@H](C)CN1C(C)c1ccc(OC(F)(F)F)cc1 (single isomer, unassigned) [Example 1405] | 480 nM |  |  | 
810 nM | 2600 nM |  |  | C[C@@H]1CN(c2cc(=O)n(C)c3ccc(C#N)nc23)[C@@H](C)CN1C(COC(F)F)c1ccc(F)cc1 (single isomer, unassigned) [Example 1189] | 1200 nM |  |  | 
9200 nM | 810 nM |  |  | CC[C@H]1CN(C(C)c2ccc(OC(F)(F)F)cc2)[C@H](COC)CN1c1cc(=O)n(C)c2ccc(C#N)nc12 (single isomer, unassigned) [Example 1409] | 2300 nM |  |  | 
310 nM | 280 nM |  |  | CC[C@H]1CN(C(c2ccc(Cl)cc2)c2ccc(Cl)cc2)[C@H](CC)CN1c1cc(=O)n(C)c2ccc(C#N)nc12 [Example 1032] | 280 nM |  |  | 
150 nM | 1200 nM |  |  | CC(c1ccc(OC(F)F)cn1)N1C[C@H](C)N(c2cc(=O)n(C)c3ccc(C#N)nc23)C[C@H]1C (single isomer, unassigned) [Example 1225] |  | 7700 nM |  | 
1400 nM | 750 nM |  |  | CC[C@H]1CN(C(C)c2ccc3c(c2)OC(F)(F)O3)[C@H](CC)CN1c1cc(=O)n(C)c2ccc(C#N)nc12 (single isomer, unassigned) [Example 1369] |  | 1300 nM |  | 
18000 nM | 28000 nM |  |  | C[C@@H]1CN(c2cc(=O)n(C)c3ccc(C#N)nc23)[C@@H](C)CN1C(c1ccc(F)cc1)c1nccn1C (stereo partly drawn) [Example 714] |  | 3900 nM |  | 
62 nM | 33 nM |  |  | CC[C@H]1CN(C(C)c2ccc(C3CC3)cc2)[C@H](CC)CN1c1cc(=O)n(C)c2ccc(C#N)nc12 (single isomer, unassigned) [Example 1355] |  | 28 nM |  | 
1500 nM | 2400 nM |  |  | CCC(c1ccc(OC(F)(F)F)cc1F)N1C[C@H](C)N(c2cc(=O)n(C)c3ccc(C#N)nc23)C[C@H]1C (single isomer, unassigned) [Example 441] |  | 7900 nM |  | 
20000 nM | 1200 nM |  |  | CC(c1cccc(OC(F)(F)F)c1F)N1C[C@H](C)N(c2cc(=O)n(C)c3ccc(C#N)nc23)C[C@H]1C (single isomer, unassigned) [Example 1209] |  | 12000 nM |  | 
1400 nM | 1800 nM |  |  | CC(c1ccc(OC(F)(F)F)cc1F)N1C[C@H](C)N(c2cc(=O)n(C)c3ccc(C#N)nc23)C[C@H]1C (single isomer, unassigned) [Example 442] |  | 7500 nM |  | 
9300 nM | 18 nM |  |  | CC(c1cc(F)cc(OC(F)(F)F)c1)N1C[C@H](C)N(c2cc(=O)n(C)c3ccc(C#N)nc23)C[C@H]1C (single isomer, unassigned) [Example 1210] |  | 880 nM |  | 
270 nM | 210 nM |  |  | CC[C@H]1CN(C(C)c2ccc(C(F)(F)F)cc2)[C@H](CC)CN1c1cc(=O)n(C)c2ccc(C#N)nc12 (single isomer, unassigned) [Example 1051] |  | 42 nM |  | 
8000 nM | 970 nM |  |  | COCc1cc(C(C)N2C[C@H](C)N(c3cc(=O)n(C)c4ccc(C#N)nc34)C[C@H]2C)ccc1F (single isomer, unassigned) [Example 1317] |  | 2900 nM |  | 
 |  | 690 nM | > 250000 nM | Cc1ccc(C(C)N2C[C@H](C)N(c3c(C#N)c(=O)n(C)c4ccc(C#N)nc34)C[C@H]2C)cc1 (single isomer, unassigned) [Example 785] |  |  | 6400 nM | 
220 nM | 8100 nM |  |  | C[C@@H]1CN(c2cc(=O)n(C)c3ccc(C#N)nc23)[C@@H](C)CN1C(c1ccc(F)cc1)c1ncco1 (stereo partly drawn) [Example 717] | 1600 nM |  |  | 
20000 nM | 2200 nM |  |  | C[C@@H]1CN(c2cc(=O)n(C)c3ccc(C#N)nc23)[C@@H](C)CN1C(c1ccc(F)cc1)C(C)(C)O (single isomer, unassigned) [Example 1308] |  | 2100 nM |  | 
